Experimental data from paper PMC4079752 (Clinical cancer research : an official journal of the …, 2014).

Target: bacterial β-glucuronidase (E. coli GUS) (Escherichia coli, UniProt P05804)
Assay: GUS enzyme activity assay with purified enzyme
Type: biochemical

Sequence of bacterial β-glucuronidase (E. coli GUS) (P05804 whole entry): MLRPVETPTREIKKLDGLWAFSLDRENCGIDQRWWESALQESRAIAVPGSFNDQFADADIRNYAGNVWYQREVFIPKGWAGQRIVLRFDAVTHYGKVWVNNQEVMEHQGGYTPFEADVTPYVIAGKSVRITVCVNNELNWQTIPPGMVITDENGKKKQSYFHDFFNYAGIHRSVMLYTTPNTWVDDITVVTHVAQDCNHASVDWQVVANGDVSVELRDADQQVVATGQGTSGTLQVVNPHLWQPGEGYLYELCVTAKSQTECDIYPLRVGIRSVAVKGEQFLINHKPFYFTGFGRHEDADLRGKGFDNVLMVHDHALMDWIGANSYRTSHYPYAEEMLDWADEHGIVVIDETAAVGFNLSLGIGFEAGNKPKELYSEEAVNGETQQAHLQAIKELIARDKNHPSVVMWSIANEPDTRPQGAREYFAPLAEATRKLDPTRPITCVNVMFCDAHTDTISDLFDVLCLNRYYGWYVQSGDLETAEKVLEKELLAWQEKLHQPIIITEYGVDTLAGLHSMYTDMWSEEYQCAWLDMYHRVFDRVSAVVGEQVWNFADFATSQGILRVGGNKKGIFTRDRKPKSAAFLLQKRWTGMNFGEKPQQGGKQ

Oc1ccc2c(c1)Oc1ccc(Cl)cc1C(N1CCNCC1)=N2 [7-OHAMOX, 7-hydroxyamoxapine]
IC50: 981 ± 183 nM

Oc1ccc2c(c1)N=C(N1CCNCC1)c1cc(Cl)ccc1O2 [8-OHAMOX, 8-hydroxyamoxapine]
IC50: 1990 nM
